Reference: ChEMBL document CHEMBL5154747, “Discovery of new carbonic anhydrase IX inhibitors as anticancer agents by toning the hydrophobic and hydrophilic rims of the active site to encounter the dual-tail approach” (Eur J Med Chem, 2022)

What was measured:
Format in all cases: functional
TK-10 = assay: Anticancer activity against human TK-10 cells assessed as cell growth inhibition incubated for 48 hrs by SRB assay
HCT-116 = assay: Anticancer activity against human HCT-116 cells assessed as cell growth inhibition incubated for 48 hrs by SRB assay
PC-3 = assay: Anticancer activity against human PC-3 cells assessed as cell growth inhibition incubated for 48 hrs by SRB assay
COLO 205 = assay: Anticancer activity against human COLO 205 cells assessed as cell growth inhibition incubated for 48 hrs by SRB assay
BT-549 = assay: Anticancer activity against human BT-549 cells assessed as cell growth inhibition incubated for 48 hrs by SRB assay
HT-29 = assay: Anticancer activity against human HT-29 cells assessed as cell growth inhibition incubated for 48 hrs by SRB assay
MDA-MB-468 = assay: Anticancer activity against human MDA-MB-468 cells assessed as cell growth inhibition incubated for 48 hrs by SRB assay
M14 = assay: Anticancer activity against human M14 cells assessed as cell growth inhibition incubated for 48 hrs by SRB assay
T47D = assay: Anticancer activity against human T47D cells assessed as cell growth inhibition incubated for 48 hrs by SRB assay
SNB-75 = assay: Anticancer activity against human SNB-75 cells assessed as cell growth inhibition incubated for 48 hrs by SRB assay
ACHN = assay: Anticancer activity against human ACHN cells assessed as cell growth inhibition incubated for 48 hrs by SRB assay
UACC-62 = assay: Anticancer activity against human UACC-62 cells assessed as cell growth inhibition incubated for 48 hrs by SRB assay
KM12 = assay: Anticancer activity against human KM12 cells assessed as cell growth inhibition incubated for 48 hrs by SRB assay
OVCAR-8 = assay: Anticancer activity against human OVCAR-8 cells assessed as cell growth inhibition incubated for 48 hrs by SRB assay
NCI-H23 = assay: Anticancer activity against human NCI-H23 cells assessed as cell growth inhibition incubated for 48 hrs by SRB assay
HL-60(TB) = assay: Anticancer activity against human HL-60(TB) cells assessed as cell growth inhibition incubated for 48 hrs by SRB assay
SF-295 = assay: Anticancer activity against human SF-295 cells assessed as cell growth inhibition incubated for 48 hrs by SRB assay; conditions: read-out: LC50 (the source's name)
SN12C = assay: Anticancer activity against human SN12C cells assessed as cell growth inhibition incubated for 48 hrs by SRB assay
U-251 = assay: Anticancer activity against human U-251 cells assessed as cell growth inhibition incubated for 48 hrs by SRB assay
RPMI-8226 = assay: Anticancer activity against human RPMI-8226 cells assessed as cell growth inhibition incubated for 48 hrs by SRB assay
SK-MEL-5 = assay: Anticancer activity against human SK-MEL-5 cells assessed as cell growth inhibition incubated for 48 hrs by SRB assay
Hs-578T = assay: Anticancer activity against human Hs-578T cells assessed as cell growth inhibition incubated for 48 hrs by SRB assay
NCI-H226 = assay: Anticancer activity against human NCI-H226 cells assessed as cell growth inhibition incubated for 48 hrs by SRB assay
UO-31 = assay: Anticancer activity against human UO-31 cells assessed as cell growth inhibition incubated for 48 hrs by SRB assay
MCF7 = assay: Anticancer activity against human MCF7 cells assessed as cell growth inhibition incubated for 48 hrs by SRB assay
OVCAR-4 = assay: Anticancer activity against human OVCAR-4 cells assessed as cell growth inhibition incubated for 48 hrs by SRB assay
HOP-92 = assay: Anticancer activity against human HOP-92 cells assessed as cell growth inhibition incubated for 48 hrs by SRB assay
786-0 = assay: Anticancer activity against human 786-0 cells assessed as cell growth inhibition incubated for 48 hrs by SRB assay
NCI-H322M = assay: Anticancer activity against human NCI-H322M cells assessed as cell growth inhibition incubated for 48 hrs by SRB assay
SR = assay: Anticancer activity against human SR cells assessed as cell growth inhibition incubated for 48 hrs by SRB assay
SF-539 = assay: Anticancer activity against human SF-539 cells assessed as cell growth inhibition incubated for 48 hrs by SRB assay
CAKI-1 = assay: Anticancer activity against human CAKI-1 cells assessed as cell growth inhibition incubated for 48 hrs by SRB assay
SNB-19 = assay: Anticancer activity against human SNB-19 cells assessed as cell growth inhibition incubated for 48 hrs by SRB assay
CCRF-CEM = assay: Anticancer activity against human CCRF-CEM cells assessed as cell growth inhibition incubated for 48 hrs by SRB assay
NCI-H522 = assay: Anticancer activity against human NCI-H522 cells assessed as cell growth inhibition incubated for 48 hrs by SRB assay
HCT-15 = assay: Anticancer activity against human HCT-15 cells assessed as cell growth inhibition incubated for 48 hrs by SRB assay
HCC 2998 = assay: Anticancer activity against human HCC 2998 cells assessed as cell growth inhibition incubated for 48 hrs by SRB assay
SK-OV-3 = assay: Anticancer activity against human SK-OV-3 cells assessed as cell growth inhibition incubated for 48 hrs by SRB assay
SF-268 = assay: Anticancer activity against human SF-268 cells assessed as cell growth inhibition incubated for 48 hrs by SRB assay
OVCAR-5 = assay: Anticancer activity against human OVCAR-5 cells assessed as cell growth inhibition incubated for 48 hrs by SRB assay
[1] = read-out: LC50 (the source's name)

Cc1nn(-c2ccccc2)cc1/C=N/Nc1nc(Nc2ccccc2)nc(Nc2ccc(S(N)(=O)=O)cc2)n1
GI50 (TK-10): 1.48 µM | CC50 (TK-10; [1]): 8.25 µM | GI50 (HCT-116): 2 µM | LC50 (concentration killing 50% of cells) (HCT-116): > 100 µM | GI50 (PC-3): 2.22 µM | CC50 (PC-3; [1]): > 100 µM | GI50 (COLO 205): 2.47 µM | CC50 (COLO 205; [1]): > 100 µM | GI50 (BT-549): 1.84 µM | CC50 (BT-549; [1]): > 100 µM | GI50 (HT-29): 2.88 µM | CC50 (HT-29; [1]): > 100 µM | GI50 (MDA-MB-468): 1.52 µM | CC50 (MDA-MB-468; [1]): 7.03 µM | GI50 (M14): 2.06 µM | GI50 (T47D): 2.14 µM | LC50 (T47D): > 100 µM | GI50 (SNB-75): 2.69 µM | LC50 (concentration killing 50% of cells) (SNB-75): > 100 µM | GI50 (ACHN): 1.9 µM | CC50 (ACHN; [1]): 6.72 µM | GI50 (UACC-62): 1.78 µM | LC50 (UACC-62): 7.19 µM | GI50 (KM12): 2.84 µM | CC50 (KM12; [1]): > 100 µM | GI50 (OVCAR-8): 2.05 µM | LC50 (OVCAR-8): > 100 µM | GI50 (NCI-H23): 1.74 µM | CC50 (NCI-H23; [1]): 7.5 µM | GI50 (HL-60(TB)): 2.24 µM | CC50 (HL-60(TB); [1]): > 100 µM | CC50 (SF-295): > 100 µM | GI50 (SN12C): 2.94 µM | LC50 (SN12C): > 100 µM | GI50 (U-251): 3.65 µM | CC50 (U-251; [1]): > 100 µM | GI50 (RPMI-8226): 1.66 µM | LC50 (concentration killing 50% of cells) (RPMI-8226): > 100 µM | GI50 (SK-MEL-5): 1.48 µM | LC50 (SK-MEL-5): 5.3 µM | GI50 (Hs-578T): 2.77 µM | LC50 (concentration killing 50% of cells) (Hs-578T): > 100 µM | GI50 (NCI-H226): 1.85 µM | CC50 (NCI-H226; [1]): > 100 µM | GI50 (UO-31): 1.72 µM | CC50 (UO-31; [1]): 7.27 µM | GI50 (MCF7): 1.55 µM | LC50 (MCF7): 7.59 µM | GI50 (OVCAR-4): 2.55 µM | LC50 (concentration killing 50% of cells) (OVCAR-4): > 100 µM | GI50 (HOP-92): 2.44 µM | CC50 (HOP-92; [1]): > 100 µM | GI50 (786-0): 2.13 µM | GI50 (NCI-H322M): 2.44 µM | CC50 (NCI-H322M; [1]): > 100 µM | GI50 (SR): 2.45 µM | CC50 (SR; [1]): > 100 µM | GI50 (SF-539): 1.71 µM | CC50 (SF-539; [1]): 6.25 µM | GI50 (CAKI-1): 2.01 µM | GI50 (SNB-19): 3.44 µM | CC50 (SNB-19; [1]): > 100 µM | GI50 (CCRF-CEM): 2.09 µM | CC50 (CCRF-CEM; [1]): > 100 µM | GI50 (NCI-H522): 2.66 µM | CC50 (NCI-H522; [1]): > 100 µM | GI50 (HCT-15): 2.67 µM | CC50 (HCT-15; [1]): > 100 µM | GI50 (HCC 2998): 1.88 µM | CC50 (HCC 2998; [1]): 7.01 µM | GI50 (SK-OV-3): 2.93 µM | LC50 (SK-OV-3): > 100 µM | GI50 (SF-268): 2.93 µM | LC50 (concentration killing 50% of cells) (SF-268): > 100 µM | GI50 (OVCAR-5): 2.06 µM | CC50 (OVCAR-5; [1]): > 100 µM
